In patent US8633207B2, “Quinazoline compounds and methods of use thereof” (Ambit Biosciences Corporation, priority 2010, dated 2014) one finds IC50 and Kd data, which are given here for 14 compounds.

For experiment [1], the system named is GM-CSFR/JAK2/STAT5 pathway. Briefly: csTF-1 cell-based reporter assay. Conditions: Homo sapiens; csTF-1 cells, GM-CSF at 2 ng/mL, 4 hours; read-out: Cell Assay: CS TF-1 reporter assay IC50. As to the method:
csTF-1 Cell-Based Reporter Assay
csTF-1 cells are derived from the human erythroleukemia cell line that is growth dependent on GM-CSF and has an intact GM-CSFR/JAK2/STAT5 pathway. The cell line contains stably integrated beta-lactamase reporter gene under the control of the […] (irf 1) response element recognized by the activated transcription factor STATS. csTF-1 cells (Invitrogen K1219) were washed with assay media (97% OPTIMEM/0.5% dialyzed FBS/0.1 mM NEAA/1 mM Na pyr/P/S) and seeded in the same media at 5×10^5 cell/mL in T150 flask. After 16 hour incubation, cells were seeded at 2×10^5 cell/well in 50 μl volume, into Costar, clear bottom, 96-well assay plates. Serial dilutions of compounds were added to the plates with final DMSO concentration at 0.5% and GM-CSF at 2 ng/mL and the plates were then incubated at […] and 5% CO2 for 4 hours. The plates were brought to room temperature before adding Substrate Mixture according to manufacturer's protocol (Invitrogen, Catalog #K1085). The assay plates containing the substrate mixture were incubated in the dark at room temperature for 2 hours. Blue and green fluorescence was measured with excitation at 409 nm and emission at 460 nm (for blue) and excitation at 409 nm and emission at 530 nm (for green) using Spectra Max Gemini EM.

A further experiment concerns the target T1, JAK2 (Homo sapiens, UniProt O60674).
T1 construct: made in house; host or cells: T7 phage display, or HEK-293 cells (alternative)
Briefly: Competition binding assay to determine Kd against JAK kinases: JAK2. An excerpt: (§1) Competition Binding Assay to Determine Binding Constants (Kd) of the Compounds Against JAK Kinases
(§2) Competition binding assays used herein were developed, validated and performed as described in Fabian et al., Nature Biotechnology 2005, 23, 329-336. Kinases were produced as fusions to T7 phage (See, Fabian et al. or WO04/015142) or alternatively, the kinases were expressed in HEK-293 cells and subsequently tagged with DNA for PCR detection (See, WO08/005,310). For the binding assays, streptavidin-coated magnetic beads were treated with biotinylated affinity ligands for 30 min at rt to generate affinity resins. The liganded beads were blocked with excess biotin and washed with blocking buffer (SeaBlock (Pierce), 1% BSA, 0.05% Tween 20, 1 mM DTT) to remove unbound ligand and to reduce non-specific binding. Binding reactions were assembled by combining kinase, liganded affinity beads, and test compounds in 1× binding buffer (20% SeaBlock, 0.17×PBS, 0.05% Tween 20, 6 mM DTT). Test compounds were prepared as 100× stocks in DMSO and rapidly diluted into the aqueous environment. DMSO was added to control assays lacking a test compound. Primary screen interactions were performed in polypropylene 384-well plates in a final volume of 34 μL, while Kd determinations were performed in polystyrene 96-well plates in a final volume of 135 μL. The assay plates were incubated at room temperature with shaking for 1 hour, long enough for binding reactions to reach equilibrium, and the affinity beads were washed extensively with wash buffer (1×PBS, 0.05% Tween 20) to remove unbound protein. The beads were then resuspended in elution buffer (1×PBS, 0.05% Tween 20, 2 μM non-biotinylated affinity ligand) and incubated at room temperature with shaking for 30 min. The kinase concentration in the eluates was measured by quantitative PCR. Each kinase was tested individually against each compound. Kds were determined using eleven serial threefold dilutions. A selectivity score, which is a quantitative measure of selectivity of a compound against a panel of enzymes, may be calculated for a compound by dividing the number of enzymes for which a compound meets a set criteria, (for example, a binding constant of 100 nM or less), by the total number of enzymes tested.

For a further experiment, the target named is T2, JAK3 (Homo sapiens, UniProt P52333).
T2 construct: made in house; host or cells: T7 phage display, or HEK-293 cells (alternative)
T2 sequence (P52333 1-1124): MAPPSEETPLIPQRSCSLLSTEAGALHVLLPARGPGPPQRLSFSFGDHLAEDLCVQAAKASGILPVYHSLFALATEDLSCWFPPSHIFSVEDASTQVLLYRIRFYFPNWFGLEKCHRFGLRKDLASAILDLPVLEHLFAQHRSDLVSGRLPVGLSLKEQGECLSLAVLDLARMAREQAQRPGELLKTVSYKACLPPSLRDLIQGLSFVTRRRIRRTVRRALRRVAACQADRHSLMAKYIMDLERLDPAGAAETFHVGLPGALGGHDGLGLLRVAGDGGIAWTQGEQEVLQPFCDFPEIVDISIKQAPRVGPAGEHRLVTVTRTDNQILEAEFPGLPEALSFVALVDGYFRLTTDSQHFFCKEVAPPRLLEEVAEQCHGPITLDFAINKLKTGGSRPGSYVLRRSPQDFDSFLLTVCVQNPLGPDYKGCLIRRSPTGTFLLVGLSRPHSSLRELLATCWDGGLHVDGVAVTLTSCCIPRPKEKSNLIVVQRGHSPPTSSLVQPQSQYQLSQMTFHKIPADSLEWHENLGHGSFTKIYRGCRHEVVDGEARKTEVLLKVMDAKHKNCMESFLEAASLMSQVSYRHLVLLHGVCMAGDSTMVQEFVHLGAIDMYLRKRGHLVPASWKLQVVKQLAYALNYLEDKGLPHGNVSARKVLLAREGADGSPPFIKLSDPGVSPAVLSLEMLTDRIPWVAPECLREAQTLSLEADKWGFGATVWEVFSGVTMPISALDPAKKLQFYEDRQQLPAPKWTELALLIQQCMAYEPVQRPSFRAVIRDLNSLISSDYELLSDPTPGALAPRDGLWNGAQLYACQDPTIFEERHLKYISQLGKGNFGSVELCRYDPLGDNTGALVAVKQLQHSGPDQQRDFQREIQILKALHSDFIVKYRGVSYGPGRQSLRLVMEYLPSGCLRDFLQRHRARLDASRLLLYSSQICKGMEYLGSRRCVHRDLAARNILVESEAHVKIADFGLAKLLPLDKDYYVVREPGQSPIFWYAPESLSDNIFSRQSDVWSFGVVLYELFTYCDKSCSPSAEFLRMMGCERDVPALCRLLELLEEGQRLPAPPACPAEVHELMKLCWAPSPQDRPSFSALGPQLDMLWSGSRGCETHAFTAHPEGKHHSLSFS
Briefly: Competition binding assay to determine Kd against JAK kinases: JAK3.
Description: as §1, §2

A further experiment deals with T3, Tyk2 (Homo sapiens, UniProt P29597).
T3 construct: made in house; host or cells: T7 phage display, or HEK-293 cells (alternative)
Briefly: Competition binding assay to determine Kd against JAK kinases: Tyk2.
Description: as §1, §2

T3 sequence (P29597 whole entry): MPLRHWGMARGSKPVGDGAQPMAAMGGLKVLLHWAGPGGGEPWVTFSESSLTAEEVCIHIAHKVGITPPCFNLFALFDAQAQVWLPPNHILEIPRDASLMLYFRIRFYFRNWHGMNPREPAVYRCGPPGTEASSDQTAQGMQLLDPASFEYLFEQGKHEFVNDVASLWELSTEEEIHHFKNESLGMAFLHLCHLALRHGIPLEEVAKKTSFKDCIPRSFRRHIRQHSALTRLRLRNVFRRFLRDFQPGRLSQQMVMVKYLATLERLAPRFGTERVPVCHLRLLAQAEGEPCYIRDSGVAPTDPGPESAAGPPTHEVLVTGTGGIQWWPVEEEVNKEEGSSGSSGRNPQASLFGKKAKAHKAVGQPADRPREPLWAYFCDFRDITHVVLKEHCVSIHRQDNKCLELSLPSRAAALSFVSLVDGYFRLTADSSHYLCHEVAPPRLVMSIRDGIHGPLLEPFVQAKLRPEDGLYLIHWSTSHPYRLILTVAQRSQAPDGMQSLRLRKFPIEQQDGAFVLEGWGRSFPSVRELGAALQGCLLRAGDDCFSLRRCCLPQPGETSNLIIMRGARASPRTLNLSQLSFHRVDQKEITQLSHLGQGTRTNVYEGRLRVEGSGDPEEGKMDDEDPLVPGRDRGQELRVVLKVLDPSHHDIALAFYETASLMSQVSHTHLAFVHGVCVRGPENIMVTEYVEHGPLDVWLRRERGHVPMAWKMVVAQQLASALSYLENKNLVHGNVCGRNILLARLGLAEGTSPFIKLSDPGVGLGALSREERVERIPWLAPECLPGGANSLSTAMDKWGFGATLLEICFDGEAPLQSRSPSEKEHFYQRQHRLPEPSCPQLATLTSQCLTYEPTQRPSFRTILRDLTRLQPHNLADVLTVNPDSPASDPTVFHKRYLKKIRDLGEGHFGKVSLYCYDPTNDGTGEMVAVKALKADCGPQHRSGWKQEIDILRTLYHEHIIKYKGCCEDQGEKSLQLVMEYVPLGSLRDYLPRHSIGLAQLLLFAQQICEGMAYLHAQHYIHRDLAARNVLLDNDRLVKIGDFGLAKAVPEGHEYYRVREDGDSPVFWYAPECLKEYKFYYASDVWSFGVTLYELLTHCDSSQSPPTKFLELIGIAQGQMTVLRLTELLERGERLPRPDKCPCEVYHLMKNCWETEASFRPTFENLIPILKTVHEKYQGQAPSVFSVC
T1 sequence (O60674 whole entry): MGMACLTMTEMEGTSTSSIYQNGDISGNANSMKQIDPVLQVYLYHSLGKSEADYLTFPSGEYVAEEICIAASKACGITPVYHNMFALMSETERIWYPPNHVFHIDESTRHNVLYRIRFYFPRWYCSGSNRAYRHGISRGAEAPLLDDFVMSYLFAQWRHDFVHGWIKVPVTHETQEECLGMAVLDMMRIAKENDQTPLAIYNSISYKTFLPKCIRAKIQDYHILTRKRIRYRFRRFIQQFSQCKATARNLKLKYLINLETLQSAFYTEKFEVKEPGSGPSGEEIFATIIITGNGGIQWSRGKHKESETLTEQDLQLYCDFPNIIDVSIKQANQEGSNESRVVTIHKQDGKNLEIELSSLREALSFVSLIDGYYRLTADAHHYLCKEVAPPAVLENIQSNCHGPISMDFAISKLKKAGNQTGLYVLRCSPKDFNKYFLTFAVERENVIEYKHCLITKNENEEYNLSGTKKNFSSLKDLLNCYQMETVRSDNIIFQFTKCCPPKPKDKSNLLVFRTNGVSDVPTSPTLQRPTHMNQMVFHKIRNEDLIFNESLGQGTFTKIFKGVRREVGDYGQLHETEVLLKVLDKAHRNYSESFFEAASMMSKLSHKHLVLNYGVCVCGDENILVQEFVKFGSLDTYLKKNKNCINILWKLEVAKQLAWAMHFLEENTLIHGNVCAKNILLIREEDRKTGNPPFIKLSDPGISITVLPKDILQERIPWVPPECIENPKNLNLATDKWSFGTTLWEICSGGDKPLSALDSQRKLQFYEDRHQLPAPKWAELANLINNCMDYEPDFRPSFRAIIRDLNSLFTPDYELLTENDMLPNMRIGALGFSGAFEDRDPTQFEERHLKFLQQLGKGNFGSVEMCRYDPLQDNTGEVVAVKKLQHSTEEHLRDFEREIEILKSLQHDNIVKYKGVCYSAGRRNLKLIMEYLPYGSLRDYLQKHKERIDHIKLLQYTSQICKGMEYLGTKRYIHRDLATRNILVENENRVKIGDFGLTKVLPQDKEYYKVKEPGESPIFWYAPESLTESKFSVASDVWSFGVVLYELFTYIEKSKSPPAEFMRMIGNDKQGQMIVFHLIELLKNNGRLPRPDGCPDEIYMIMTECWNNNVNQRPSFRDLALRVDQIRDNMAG

As usually defined, the IC50 is the midpoint of a concentration-inhibition curve. One may read the Kd as the free concentration of one partner at which half of the binding sites on the other are occupied at equilibrium, for simple one-to-one binding. Higher therefore signals a looser complex. As for `Cc1cc(Nc2nc(C(F)(F)c3ccc(F)cn3)nc3c(Cl)cccc23)n[nH]1` [Example 13, 8-chloro-2-(difluoro(5-fluoropyridin-2-yl)methyl)-N-(5-methyl-1H-pyrazol-3-yl)quinazolin-4-amine], the IC50 in experiment [1] is at most 0.1 µM. The Kd is at most 0.001 µM at JAK2, at most 0.01 µM at JAK3 and at most 0.01 µM on Tyk2.

On to `CC(=O)Nc1cccc2c(Nc3cc(C)[nH]n3)nc(C(F)(F)c3ccc(F)cn3)nc12` [Example 48, N-(2-(difluoro(5-fluoropyridin-2-yl)methyl)-4-((5-methyl-1H-pyrazol-3-yl)amino)quinazolin-8-yl)acetamide], for which the IC50 in experiment [1] is at most 0.1 µM. The Kd at JAK2 was at most 0.001 µM; on JAK3 it was at most 0.01 µM; on Tyk2, at most 0.01 µM.

For `Cc1cc(Nc2nc(C(F)(F)c3ccc(F)cn3)nc3ccccc23)n[nH]1` [Example 2, 2-(difluoro(5-fluoropyridin-2-yl)methyl)-N-(5-methyl-1H-pyrazol-3-yl)quinazolin-4-amine], the IC50 in experiment [1] is at most 0.1 µM. The equilibrium dissociation constant (Kd) was at most 0.001 µM at JAK2, at most 0.01 µM at JAK3 and at most 0.01 µM at Tyk2.

For `Cc1cc(Nc2nc(C(=O)c3ccc(F)cn3)nc3ccccc23)n[nH]1` [Example 1, (5-fluoropyridin-2-yl)(4-(5-methyl-1H-pyrazol-3-ylamino)quinazolin-2-yl)methanone], the IC50 in experiment [1] was at most 0.1 µM. Further, the Kd on JAK2 is 0.001 to 0.01 µM; at JAK3, 0.01 to 0.1 µM; at Tyk2 it was at most 0.01 µM.

For the compound `Cc1cc(Nc2nc(C(F)(F)c3ccc(F)cn3)nc3c(S(C)(=O)=O)cccc23)n[nH]1` [Example 37, 2-(difluoro(5-fluoropyridin-2-yl)methyl)-N-(5-methyl-1H-pyrazol-3-yl)-8-(methylsulfonyl)quinazolin-4-amine], the IC50 in experiment [1] lay in the range of 0.1 to 0.5 µM. The Kd at JAK2 was 0.001 to 0.01 µM; on JAK3 it was 0.01 to 0.1 µM; on Tyk2, at most 0.01 µM.

With `Cc1cc(Nc2nc(C(F)(F)c3ccc(F)cn3)nc3c(C#N)cccc23)n[nH]1` [Example 35, 2-(difluoro(5-fluoropyridin-2-yl)methyl)-4-((5-methyl-1H-pyrazol-3-yl)amino)quinazoline-8-carbonitrile], in experiment [1], the IC50 lay in the range of 0.1 to 0.5 µM. For the same compound, the Kd on JAK2 is at most 0.001 µM; on JAK3, 0.01 to 0.1 µM; on Tyk2, at most 0.01 µM.

As to `Cc1cc(Nc2nc(C(F)(F)c3ccc(F)cn3)nc3c(Br)cccc23)n[nH]1` [Example 11, 8-bromo-2-(difluoro(5-fluoropyridin-2-yl)methyl)-N-(5-methyl-1H-pyrazol-3-yl)quinazolin-4-amine], in experiment [1], the IC50 fell in the range of 0.1 to 0.5 µM. The equilibrium dissociation constant (Kd) was at most 0.001 µM at JAK2, 0.01 to 0.1 µM on JAK3 and at most 0.01 µM at Tyk2.

On to `Cc1cc(Nc2nc(C(F)(F)c3ccc(F)cn3)nc3c(C(N)=O)cccc23)n[nH]1` [Example 39, 2-(difluoro(5-fluoropyridin-2-yl)methyl)-4-((5-methyl-1H-pyrazol-3-yl)amino)quinazoline-8-carboxamide], for which, in experiment [1], the IC50 is at most 0.1 µM. The Kd on JAK2 is at most 0.001 µM; at JAK3, at most 0.01 µM; on Tyk2, at most 0.01 µM.

Turning to `Cc1cc(Nc2nc(C(F)(F)c3ccc(F)cn3)nc3cc(S(C)(=O)=O)ccc23)n[nH]1` [Example 38, 2-(difluoro(5-fluoropyridin-2-yl)methyl)-N-(5-methyl-1H-pyrazol-3-yl)-7-(methylsulfonyl)quinazolin-4-amine], the IC50 in experiment [1] is 0.1 to 0.5 µM. Besides, the dissociation constant Kd is at most 0.001 µM on JAK2, at most 0.01 µM on JAK3 and at most 0.01 µM on Tyk2.

With `COc1cc(Nc2nc(C(F)(F)c3ccc(F)cn3)nc3ccccc23)n[nH]1` [Example 5, 2-(difluoro(5-fluoropyridin-2-yl)methyl)-N-(5-methoxy-1H-pyrazol-3-yl)quinazolin-4-amine], the IC50 in experiment [1] was 0.1 to 0.5 µM. Besides, the Kd on JAK2 was at most 0.001 µM; at JAK3, 0.01 to 0.1 µM; on Tyk2, at most 0.01 µM.

For `Cc1cc(Nc2nc(C(F)(F)c3ccc(F)cn3)nc3cc(F)ccc23)n[nH]1` [Example 15, 2-(difluoro(5-fluoropyridin-2-yl)methyl)-7-fluoro-N-(5-methyl-1H-pyrazol-3-yl)quinazolin-4-amine], the IC50 in experiment [1] was at most 0.1 µM. Further, the values for the Kd on JAK2, on JAK3 and at Tyk2 were at most 0.001 µM, 0.01 to 0.1 µM and at most 0.01 µM, respectively.

As to `Cc1cc(Nc2nc(C(F)(F)c3ccc(F)cn3)nc3c(N4CCOCC4=O)cccc23)n[nH]1` [Example 42, 4-(2-(difluoro(5-fluoropyridin-2-yl)methyl)-4-((5-methyl-1H-pyrazol-3-yl)amino)quinazolin-8-yl)morpholin-3-one], in experiment [1], the IC50 lay in the range of 0.1 to 0.5 µM. In addition, the results for the Kd on JAK2, at JAK3 and at Tyk2 were at most 0.001 µM, at most 0.01 µM and at most 0.01 µM, respectively.

As for `Cc1cc(Nc2nc(C(F)(F)c3ccc(F)cn3)nc3c(NS(C)(=O)=O)cccc23)n[nH]1` [Example 52, N-(2-(difluoro(5-fluoropyridin-2-yl)methyl)-4-((5-methyl-1H-pyrazol-3-yl)amino)quinazolin-8-yl)methanesulfonamide], in experiment [1], the IC50 is at most 0.1 µM. Besides, the values for the Kd on JAK2, on JAK3 and on Tyk2 were at most 0.001 µM, at most 0.01 µM and at most 0.01 µM, respectively.

With `COC(=O)c1cccc2c(Nc3cc(C)[nH]n3)nc(C(F)(F)c3ccc(F)cn3)nc12` [Example 47, methyl 2-(difluoro(5-fluoropyridin-2-yl)methyl)-4-((5-methyl-1H-pyrazol-3-yl)amino)quinazoline-8-carboxylate], the dissociation constant (Kd) on JAK2 is at most 0.001 µM; at JAK3 it was at most 0.01 µM; on Tyk2, at most 0.01 µM.
